{"source": "ChEMBL document CHEMBL5465560", "about": "“Selectivity Literature for EUbOPEN Chemogenomic Library” (2024)", "key": {"[1]": {"target": "T1, Rhodopsin kinase GRK1 (Homo sapiens) (UniProt Q15835)", "T1 sequence (whole entry)": "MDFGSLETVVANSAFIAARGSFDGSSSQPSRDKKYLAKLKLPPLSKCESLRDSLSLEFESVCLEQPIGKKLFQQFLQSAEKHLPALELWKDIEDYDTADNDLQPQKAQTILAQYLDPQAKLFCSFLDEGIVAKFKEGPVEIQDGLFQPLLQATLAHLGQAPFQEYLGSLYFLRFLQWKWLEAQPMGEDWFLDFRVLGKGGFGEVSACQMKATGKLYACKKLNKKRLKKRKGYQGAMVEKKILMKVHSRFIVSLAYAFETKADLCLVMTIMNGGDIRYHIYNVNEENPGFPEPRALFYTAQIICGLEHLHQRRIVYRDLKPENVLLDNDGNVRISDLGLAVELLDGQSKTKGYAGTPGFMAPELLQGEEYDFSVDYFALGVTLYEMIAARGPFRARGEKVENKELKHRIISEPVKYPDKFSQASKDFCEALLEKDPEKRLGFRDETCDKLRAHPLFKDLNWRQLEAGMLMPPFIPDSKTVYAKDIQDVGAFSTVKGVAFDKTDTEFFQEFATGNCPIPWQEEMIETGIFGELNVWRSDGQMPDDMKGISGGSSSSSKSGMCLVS", "assay": "Selectivity interaction (KinomeScan (DiscoverX)) EUB0000092b GRK1", "settings": "at 10 µM"}, "[2]": {"target": "T2, Bone morphogenetic protein receptor type-2 (Homo sapiens) (UniProt Q13873)", "T2 sequence (whole entry)": "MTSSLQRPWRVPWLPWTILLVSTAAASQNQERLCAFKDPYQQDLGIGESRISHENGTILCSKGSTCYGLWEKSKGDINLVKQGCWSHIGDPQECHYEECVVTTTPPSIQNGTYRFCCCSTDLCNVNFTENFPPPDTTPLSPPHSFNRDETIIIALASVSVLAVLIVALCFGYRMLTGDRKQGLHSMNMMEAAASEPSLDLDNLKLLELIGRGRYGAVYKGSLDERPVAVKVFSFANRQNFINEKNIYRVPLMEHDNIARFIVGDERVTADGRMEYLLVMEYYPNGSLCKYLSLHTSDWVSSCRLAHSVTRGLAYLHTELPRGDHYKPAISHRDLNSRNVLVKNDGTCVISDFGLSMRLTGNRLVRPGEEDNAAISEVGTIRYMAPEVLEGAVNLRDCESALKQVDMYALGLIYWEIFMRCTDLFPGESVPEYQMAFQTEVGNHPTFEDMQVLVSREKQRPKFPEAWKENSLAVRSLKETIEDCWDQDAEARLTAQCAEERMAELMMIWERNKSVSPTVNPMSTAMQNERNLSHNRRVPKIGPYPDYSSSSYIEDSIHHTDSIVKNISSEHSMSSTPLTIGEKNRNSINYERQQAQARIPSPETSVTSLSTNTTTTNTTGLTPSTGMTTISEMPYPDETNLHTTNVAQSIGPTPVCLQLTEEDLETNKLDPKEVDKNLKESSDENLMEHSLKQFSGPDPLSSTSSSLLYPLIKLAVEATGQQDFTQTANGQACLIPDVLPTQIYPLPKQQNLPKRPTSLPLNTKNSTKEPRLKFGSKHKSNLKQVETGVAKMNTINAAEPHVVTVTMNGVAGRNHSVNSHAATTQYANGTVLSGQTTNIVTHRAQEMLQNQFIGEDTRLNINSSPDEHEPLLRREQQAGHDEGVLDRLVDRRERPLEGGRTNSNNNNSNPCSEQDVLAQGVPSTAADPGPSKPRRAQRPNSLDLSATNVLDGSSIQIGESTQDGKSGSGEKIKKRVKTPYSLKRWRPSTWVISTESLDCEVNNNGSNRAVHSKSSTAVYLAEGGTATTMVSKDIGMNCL", "assay": "Selectivity interaction (Ambit KINOMEscan and KiNATiv profiling in Jurkat cells) EUB0000090b BMPR2", "type": "cell-based", "settings": "at 1 µM"}, "[3]": {"target": "T3, Serine/threonine-protein kinase TBK1 (Homo sapiens) (UniProt Q9UHD2)", "T3 sequence (whole entry)": "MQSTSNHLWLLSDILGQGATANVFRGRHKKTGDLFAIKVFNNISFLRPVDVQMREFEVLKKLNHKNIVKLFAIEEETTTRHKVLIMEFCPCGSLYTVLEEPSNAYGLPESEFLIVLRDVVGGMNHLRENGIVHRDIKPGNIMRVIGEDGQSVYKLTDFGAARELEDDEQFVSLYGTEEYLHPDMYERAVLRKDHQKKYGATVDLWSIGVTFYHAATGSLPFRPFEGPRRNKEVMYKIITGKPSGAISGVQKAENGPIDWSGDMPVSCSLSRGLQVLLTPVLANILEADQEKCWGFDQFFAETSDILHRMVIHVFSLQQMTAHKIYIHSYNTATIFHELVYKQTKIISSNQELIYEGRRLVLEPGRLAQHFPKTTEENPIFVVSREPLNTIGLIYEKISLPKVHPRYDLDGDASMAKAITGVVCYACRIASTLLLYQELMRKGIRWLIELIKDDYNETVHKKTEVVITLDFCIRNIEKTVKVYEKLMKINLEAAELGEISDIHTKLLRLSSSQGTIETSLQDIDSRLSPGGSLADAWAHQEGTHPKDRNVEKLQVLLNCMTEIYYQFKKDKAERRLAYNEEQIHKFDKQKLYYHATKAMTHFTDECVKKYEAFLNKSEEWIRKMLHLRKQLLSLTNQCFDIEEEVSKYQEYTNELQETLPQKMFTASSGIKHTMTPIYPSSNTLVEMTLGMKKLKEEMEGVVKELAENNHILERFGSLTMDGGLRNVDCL", "assay": "Selectivity interaction (Kinase panel (Z-LYTE Assay)) EUB0001632a TBK1", "settings": "at 10 µM"}, "[4]": {"target": "T4, Gamma-aminobutyric acid receptor subunit alpha-1 (Homo sapiens) (UniProt P14867)", "T4 sequence (whole entry)": "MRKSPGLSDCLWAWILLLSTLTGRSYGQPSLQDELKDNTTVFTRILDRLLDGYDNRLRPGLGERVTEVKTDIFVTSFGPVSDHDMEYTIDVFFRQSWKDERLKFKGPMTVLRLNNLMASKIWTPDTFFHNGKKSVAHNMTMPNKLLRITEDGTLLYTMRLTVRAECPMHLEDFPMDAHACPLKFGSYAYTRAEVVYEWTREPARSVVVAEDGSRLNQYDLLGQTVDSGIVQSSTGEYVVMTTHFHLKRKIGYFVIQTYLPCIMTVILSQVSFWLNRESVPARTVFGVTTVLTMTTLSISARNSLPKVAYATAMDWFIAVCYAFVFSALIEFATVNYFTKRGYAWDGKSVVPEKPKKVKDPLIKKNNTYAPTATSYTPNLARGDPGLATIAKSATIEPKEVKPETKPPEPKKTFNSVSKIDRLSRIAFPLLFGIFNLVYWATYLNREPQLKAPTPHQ", "assay": "Selectivity interaction (Panel of non-epigenetic targets (kinases, GPCRs, ion channels, and transporters, Eurofins) ) EUB0000271b GABRA1", "settings": "at 1 µM"}}}
{"smiles": "CCC(=O)N1CCN(c2ccc(-n3c(=O)ccc4cnc5ccc(-c6cnc7ccccc7c6)cc5c43)cc2C(F)(F)F)CC1", "values": [{"measurement": "% of control", "setting": "[1]", "value": 99, "unit": "%"}]}
{"smiles": "CN(C)C/C=C/C(=O)Nc1ccc(C(=O)N2CCCC(Nc3ncc(Cl)c(-c4c[nH]c5ccccc45)n3)C2)cc1", "note": "(centres undefined)", "values": [{"measurement": "% of control", "setting": "[2]", "value": 100, "unit": "%"}]}
{"smiles": "Cn1cc(-n2cnc3c(NCc4nc5cc(Cl)c(Cl)cc5[nH]4)nc(N4CCOCC4)nc32)cn1", "values": [{"measurement": "% of control", "setting": "[3]", "value": -4.28, "unit": "%"}]}
{"smiles": "Cc1cc(C)cc([C@@H]2c3cc(C)ccc3NC(=O)CN2C(=O)c2ccc(Br)s2)c1", "values": [{"measurement": "% of inhibition", "setting": "[4]", "value": -9, "unit": "%"}]}
